According to article PMC11104609, “Discovery of allosteric regulators with clinical potential to stabilize alpha-L-iduronidase in mucopolysaccharidosis type I” (PLOS ONE, 2024):

How the values were obtained:
[1] = molecular target: T1, IDUA (Homo sapiens, UniProt P35475); experiment: Differential scanning fluorimetry (DSF) thermal shift; type: binding; set-up: purchased R&D Systems
T1 sequence (P35475 28-653): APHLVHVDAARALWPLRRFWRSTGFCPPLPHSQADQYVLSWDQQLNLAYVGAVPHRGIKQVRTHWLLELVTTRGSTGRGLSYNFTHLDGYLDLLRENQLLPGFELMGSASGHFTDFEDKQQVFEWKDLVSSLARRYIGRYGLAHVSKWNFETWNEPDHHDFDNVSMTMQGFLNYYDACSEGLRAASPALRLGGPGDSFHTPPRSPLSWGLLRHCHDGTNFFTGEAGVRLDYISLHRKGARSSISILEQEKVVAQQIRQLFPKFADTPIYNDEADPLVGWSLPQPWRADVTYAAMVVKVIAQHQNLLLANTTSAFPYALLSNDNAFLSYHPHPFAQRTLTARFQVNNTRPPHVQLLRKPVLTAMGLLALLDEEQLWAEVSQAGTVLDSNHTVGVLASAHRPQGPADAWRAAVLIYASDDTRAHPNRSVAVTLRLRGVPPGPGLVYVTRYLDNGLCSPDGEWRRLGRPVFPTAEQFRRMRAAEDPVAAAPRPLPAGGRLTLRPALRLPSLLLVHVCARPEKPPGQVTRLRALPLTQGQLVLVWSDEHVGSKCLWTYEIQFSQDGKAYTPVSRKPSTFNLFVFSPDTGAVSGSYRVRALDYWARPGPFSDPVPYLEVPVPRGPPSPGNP
Method: The capacity of the compounds to stabilise IDUA was assessed by DSF. The thermal denaturation of purified human native enzyme was monitored in the presence of the extrinsic fluorescent probe SYPRO® Orange (Thermo Fisher Scientific, Waltham, MA, USA), which binds to hydrophobic parts of proteins that become exposed as the protein unfolds. […] Reactions containing 12.5 μL of 1.5 μM rhIDUA protein (purchased from R&D Systems) in 100 mM Hepes, 20 mM MgCl2, pH 7, to a final protein concentration of 0.75 μM with SYPRO Orange 10X, and 12.5 μL of the different compound solutions dissolved in 100% DMSO and diluted into the protein buffer to achieve final concentrations of 1% DMSO. The intensity of SYPRO Orange fluorescence after a systematic increase in temperature was monitored in the Roche LightCycler® 480 II device (Roche Diagnostics). The significance of the melting temperature (Tm) shifts was evaluated based on two criteria: absolute ΔTm shift > 0.5 °C (instrumental criterion) and absolute ΔTm standard deviation ≤ 0.2 (statistical criterion). The thermal shift dose response was performed at various increasing concentrations (from 0.04 to 90 μM) of compound #18 (GT-01803) with rhIDUA (obtained from the Institute of Biotechnology and Biomedicine at the Autonomous University of Barcelona (UAB), Bellaterra, Spain).

[2] = molecular target: T1, IDUA; experiment: IDUA enzymatic activity in patient-derived fibroblasts after rhIDUA with or without compound (4-MUI substrate); type: cell-based; set-up: Institute of Biotechnology and Biomedicine, Autonomous University of Barcelona (UAB), Bellaterra, Spain
Method: Fibroblasts derived from Hurler (GM00798) and Hurler/Scheie patients (GM02845, GM00512, GM01898, GM00963) were purchased from Coriell (Camden, NJ). Fibroblasts were cultured in Dulbecco’s modified Eagle’s medium (DMEM, Gibco) supplemented with 10% inactivated fetal bovine serum (FBS, Gibco) and 1% penicillin-streptomycin (Thermo Fisher Scientific, Waltham, MA, USA) (growth medium) at 37 °C under 5% CO2. The effect of the protein and/or compound in enhancing IDUA enzymatic activity was evaluated as follows: The specified patient-derived fibroblasts were seeded at 4x10^4 cells per well in 12-well cell culture plates in growth medium. Subsequently, cells were incubated with indicated dose of rhIDUA (obtained from the Institute of Biotechnology and Biomedicine in the UAB, Bellaterra, Spain) in the absence or presence of the compound #18 (GT-01803) for the specified incubation times at 50 μM. After incubation, cells were washed with PBS and detached using Trypsin-EDTA solution (Sigma Aldrich, St. Louis, MO, USA) to prepare cell pellets. The pellets were stored at -80 °C until activity assays were performed. IDUA activity in cell lysates was measured using 4-methylumbelliferyl IDUA substrate (4-MUI, Glycosynth Ltd., #44076, Warrington, UK). Briefly, lysates were resuspended in 120 μL of 0.9% NaCl containing 0.01% Triton X-100 lysis buffer to promote membrane disruption. Next, the cell suspension was sonicated and centrifuged to pellet insoluble materials. Then, 25 μL of lysates were mixed with 25 μL of 200 μM 4-MUI substrate solution in 0.4 M sodium formate, pH 3.5, 0.2% Triton X-100 buffer and incubated for 60 mins at 37 °C. The reaction was stopped by adding 200 μL of 0.5 M Glycine/0.3 M NaOH buffer, pH 10. The liberated 4-methylumbelliferone (4-MU) was measured on a Glomax® Discover microplate reader with excitation at 340 nm and emission at 460 nm. Protein quantification was determined using Pierce BCA Protein Assay Kit (Thermo Fisher Scientific, Waltham, MA, USA). Measurements were interpolated in a 4-MU standard curve and normalised by protein quantity.
For Fig 6A, rhIDUA concentrations of 0.187, 0.375 and 1.25 nM were tested in GM02845 fibroblasts over a 96-hour period, both in the presence and absence of the compound #18 (GT-01803) at 50 μM. In Fig 6B, 1.25 nM of rhIDUA was evaluated in GM02845, GM00798, GM00512, and GM00963 fibroblasts for 96h, with and without the compound #18 (GT-01803) at 50 μM. In Fig 6C, a concentration of 1.25 nM of the protein was applied to fibroblasts for 4, 8, 24 and 96h, with and without the compound #18 (GT-01803) at 50 μM.

[3] = rhIDUA 1.25 nM + GT-01803 50 μM, GM02845 fibroblasts (Fig 6C)

rhIDUA stabilization by DSF (ΔTm) ([1]; 30 μM, compounds #1 to #21): highest rhIDUA stabilization
increase of rhIDUA melting temperature ([1]; dose response 0.04 to 90 μM, neutral pH): 4 ºC
IDUA cell activity compared with rhIDUA alone ([2]; co-administration of rhIDUA (0.187, 0.375, 1.25 nM) with 50 μM GT-01803, GM02845, 96 h, p ≤ 0.0001): marked dose-dependent increase
mean IDUA cell activity at 96h [2, 3]: 104.3 nmol/h/mg
mean difference in IDUA cell activity at 96h, rhIDUA + compound vs rhIDUA alone [2, 3]: 28.65 ± 3.106 nmol/h/mg
Structure (SMILES): CCN(CC(=O)Nc1c(Cl)cccc1Cl)Cc1nc2ccsc2c(=O)[nH]1 [GT-01803]
